Reference: article PMC6911004, “Fragment-based screening identifies molecules targeting the substrate-binding ankyrin repeat domains of tankyrase” (Scientific Reports, 2019)

Key:
Type in all cases: binding
TNKS2 ARC4 (488–649) = target: T1, TNKS2 ARC4 (488–649) (Homo sapiens, UniProt Q9H2K2); assay: Isothermal titration calorimetry (ITC); details: global analysis n = 5
T1 construct: The cell was filled with TNKS2 ARC4 (488–649); His6-GST (cleaved yes); made in house; host or cells: E. coli BL21-CodonPlus (DE3)-RIL
T1 sequence (Q9H2K2 488-649): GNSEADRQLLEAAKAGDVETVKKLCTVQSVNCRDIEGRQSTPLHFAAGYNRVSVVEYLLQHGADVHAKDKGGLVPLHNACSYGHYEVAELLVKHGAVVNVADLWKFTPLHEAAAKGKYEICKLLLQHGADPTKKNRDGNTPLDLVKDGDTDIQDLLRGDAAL
Description: We next used isothermal titration calorimetry (ITC) to confirm the compound 9:TNKS2 ARC4 binding affinity, titrating the fragment (5 mM, 1% DMSO) into TNKS2 ARC4 (200 μM, 1% DMSO).
An ITC200 instrument (MicroCal) was used, fitted with a twisted syringe needle, stirring at 750 rpm. All solutions were degassed using a ThermoVac before use. The reference cell was filled with buffer (200 μL, 25 mM HEPES-NaOH pH 7.5, 100 mM NaCl, 1 mM TCEP, 1% v/v DMSO). The cell was filled with TNKS2 ARC4 (488–649) (200 μL, 200 μM in identical buffer as above). 20 injections (1 × 0.5 μL, then 19 × 2 μL) of compound 9 (5 mM, 1% v/v DMSO in buffer) were performed, with 180 s between injections. Blank correction was performed by titrating compound into buffer alone (25 mM HEPES-NaOH pH 7.5, 100 mM NaCl, 1 mM TCEP, 1% v/v DMSO) using the same injection protocol as above. The first injections from each run were discarded from data analysis. Data were analysed using Origin software with a one-site binding model. Titrations were repeated n = 5. Global analysis was performed using SEDPHAT software.

TNKS2 ARC4 = target: T2, TNKS2 ARC4 (Homo sapiens, UniProt Q9H2K2); assay: Differential scanning fluorimetry (DSF); details: ARC 20 μM + 3BP2 TBM peptide 200 μM, inflection point method
T2 construct: The cell was filled with TNKS2 ARC4 (488–649); His6-GST; made in house; host or cells: E. coli
T2 sequence (Q9H2K2 488-649): T1 sequence (Q9H2K2 488-649)
Description: (§1) For the experiment shown in Fig. 2A, ARC and 3BP2 TBM peptide concentrations were 20 and 200 μM, respectively, in 50 mM HEPES-NaOH pH 7.5, 100 mM NaCl, 2 mM TCEP and a total volume of 25 μL. SYPRO Orange was added at 5×. Data were recorded from 4–95 °C, with the temperature ramped by 0.5 °C every 15 s, using a CFX384 thermal cycler (Bio-Rad). Data were analysed by non-linear regression in GraphPad Prism using a Boltzmann sigmoid with linear baselines. ΔTm values were determined using the inflection point method.

TNKS2 ARC1 = target: T3, TNKS2 ARC1 (Homo sapiens, UniProt Q9H2K2); assay: Differential scanning fluorimetry (DSF); details: ARC 20 μM + 3BP2 TBM peptide 200 μM, inflection point method
T3 construct: TNKS2 ARC1 (20–178); His6-GST; made in house; host or cells: E. coli
T3 sequence (Q9H2K2 whole entry, looked up): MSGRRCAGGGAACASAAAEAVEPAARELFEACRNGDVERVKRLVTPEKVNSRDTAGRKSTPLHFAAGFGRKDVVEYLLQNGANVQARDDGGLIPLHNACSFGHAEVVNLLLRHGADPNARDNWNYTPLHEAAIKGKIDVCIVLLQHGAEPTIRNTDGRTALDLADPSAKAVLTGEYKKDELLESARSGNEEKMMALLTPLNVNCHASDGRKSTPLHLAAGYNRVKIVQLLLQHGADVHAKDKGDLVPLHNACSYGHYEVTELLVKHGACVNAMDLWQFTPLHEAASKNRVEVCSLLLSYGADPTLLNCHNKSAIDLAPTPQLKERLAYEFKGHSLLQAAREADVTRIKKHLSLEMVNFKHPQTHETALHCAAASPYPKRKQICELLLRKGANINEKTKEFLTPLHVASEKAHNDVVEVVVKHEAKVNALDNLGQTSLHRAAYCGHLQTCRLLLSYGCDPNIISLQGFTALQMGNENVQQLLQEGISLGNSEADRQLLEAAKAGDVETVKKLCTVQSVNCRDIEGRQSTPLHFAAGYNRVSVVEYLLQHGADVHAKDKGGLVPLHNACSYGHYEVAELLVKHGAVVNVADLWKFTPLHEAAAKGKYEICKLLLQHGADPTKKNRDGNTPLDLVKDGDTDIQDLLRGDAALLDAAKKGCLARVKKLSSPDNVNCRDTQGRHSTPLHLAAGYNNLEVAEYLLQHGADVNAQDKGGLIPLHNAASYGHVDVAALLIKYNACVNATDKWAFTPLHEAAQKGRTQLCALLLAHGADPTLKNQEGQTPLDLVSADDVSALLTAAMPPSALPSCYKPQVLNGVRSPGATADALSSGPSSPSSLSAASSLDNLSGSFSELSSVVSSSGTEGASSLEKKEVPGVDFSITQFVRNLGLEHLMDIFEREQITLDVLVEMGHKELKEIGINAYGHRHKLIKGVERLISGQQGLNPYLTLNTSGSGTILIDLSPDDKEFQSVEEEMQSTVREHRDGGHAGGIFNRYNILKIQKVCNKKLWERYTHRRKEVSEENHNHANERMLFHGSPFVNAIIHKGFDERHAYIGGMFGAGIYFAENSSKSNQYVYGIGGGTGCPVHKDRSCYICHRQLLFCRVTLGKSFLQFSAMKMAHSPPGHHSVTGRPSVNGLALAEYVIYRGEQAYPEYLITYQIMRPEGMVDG
Description: as §1

| Compound | Kd (TNKS2 ARC4 (488–649); compound 5 mM into ARC4 200 μM, 1% DMSO) [mM] | ITC stoichiometry (N) compound:TNKS2 ARC4 (TNKS2 ARC4 (488–649)) | ΔTm (TNKS2 ARC4) [°C] | ΔTm (TNKS2 ARC1) [°C] |
| --- | --- | --- | --- | --- |
| O=C(NCc1ccco1)c1ccc2nccnc2c1 [compound 9] | 1.2 | 1.1 |  |  |
| LPHLQRSPPDGQSFRSW [3BP2 16-mer peptide, 16-mer TBM peptide derived from 3BP2, W added for A280, N-terminus acetylated, C-terminus amide-capped; positive control, reference compound] |  |  | 0.63 | 1.34 |
